From patent US20020177120A1, “ASSAYS FOR APOTOSIS MODULATORS” (priority 1999, published 2002)
Entries after “also recorded” stand apart in the source; their conditions may differ. *1 amine or outer side, *2 acyl side, *3 side chain or, on linkers, in order; H or OH if unused. Where a SMILES comes first, the peptide text is derived from it. Bridges are numbered along the chain shown (N, C = ends). Roman numbers before positions name the chains, in order. [ ]: non-standard residue; d: D form. Actinocin(9to1) = Cc1c2oc3c(C)ccc(C(=O)[*:1])c3nc-2c(C(=O)[*:2])c(N)c1=O; NMeV = CN[C@H](C(=O)O)C(C)C; Sar = CNCC(=O)O

Legend:
IMR-32 cells [1] = assay: Cell death / SYTO 13 cell survival in IMR-32 cells; assay type: cell-based; settings: for programmed cell death as measured by Cell Death Detection: 4-8 hrs. treatment; for cells surviving (SYTO 13 assay): 50 μM etoposide
Experimental: (§1) Three CNS derived cell lines, IMR-32, NB41A3 and Neuro2A, were initially evaluated for growth and transfection characteristics, inducibility of apoptosis in a large percentage of cells, and a inducible apoptosis protease activity. […] The SYTO 13 cell survival assay and Cell Death Detection ELISA^PLUS (Materials and Methods) were used to optimize conditions for induction of apoptosis. IMR-32 cells were treated with Actinomycin D (ActD), cycloheximide (CHX), etoposide or staurosporin for 4-8 hrs.
SYTO13 Cell Viability Assays: Cells were seeded into 96-well plates, incubated overnight to adhere cells to the plastic, and then treated in quadruplicate for various times with extrinsically applied apoptosis-inducing agents, i.e., staurosporin or etoposide. Cell viability was determined using 5 μM SYTO 13 (Molecular Probes) and/or 5 μg/ml propidium iodide (PI, Molecular Probes). As controls, four wells of untreated cells were stained with SYTO 13 and PI, i.e., to measure the maximum signal (max), and four wells of untreated cells were stained with only PI, i.e., to measure the minimum signal (min). After 30 minutes of incubation at 37° C., fluorescence was assayed in plates using the Cytofluor II plate reader (Perseptive Biosystems) (excitation 485/20 nm; emission 530/30 nm; gain 50). Data was collected as relative fluorescence units (rfu) and averaged for six readings per well. Percent cell survival was calculated as 100×(rfutreatment−rfumin)/(rfumax−rfumin).
(§2) Etoposide-Induced Cell Death and Apoptotic DNA Fragmentation in IMR-32 Cells: Confluent IMR-32 cells were treated with 50 μM etoposide phosphate for 2, 8, 17 or 24 hrs. To evaluate apoptosis cells were either: i) stained with SYTO 13 and assayed for fluorescence using a Cytofluor II plate reader (excitation 485/20 nm, emission 530/30 nm), or ii) nucleosome-associated DNA fragments were detected using the Cell Death Detection ELISA^PLUS (Boehringer Mannheim) according to the manufacturer's instructions.

caspase-3 [2] = assay: Caspase-3 assay in IMR-32 cells; assay type: cell-based
Experimental: as §1
(§3) Caspase-3 Assay: Caspase-3 activity was assayed according to the following protocol. Cells plated and treated as above were washed in 1×PBS and lysed in 1×assay buffer (1 mM DTT, 1% Triton X-100, 0.5% Tween-20 in 1×PBS, pH 7.2). Lysates were combined with fluorogenic substrate, Ac-DEVD-AMC ([…]), ±inhibitor, Ac-DEVD-CHO (10 μM) (Bachem) in 1×assay buffer and incubated in the dark for 1 hr. at room temperature. Fluorescence readings were taken on the Cytofluor II plate reader (excitation 360 nm, emission 460 nm, 6 reads/well, gain 50).
Confluent IMR-32 cells were treated with 100 μM etoposide for 8 hrs. Cell lysates were collected and assayed for caspase-3 activity.

F9-1-13 cells = assay: Cell-based FRET reporter assay in F9-1-13 (SgAT) cells; design: species or system human
Source text: Transfection of pcDNA3VH-SgAT and pcDNA3VH-SnAT into U-138 cells (using methods described above) resulted initially in few colonies and FRET signal was lost in many clones during expansion, however, from among the various subclones the F9-1-13 (pcDNA3VH-SgAT transfected; ATCC No. PTA-84) and F10-24-2 (pcDNA3-SnAT transfected) subclones were eventually expanded and shown to express stable FRET signals. As desired, the FRET signal expressed in F9-1-13 decreased in response to both staurosporin and anti-Fas antibody treatment of cells, while the FRET signal expressed by the F10-24-2 control cells, (i.e., lacking a caspase substrate domain), was unaffected following staurosporin or anti-Fas antibody treatment. […] F9-1-13 therefore appeared suitable for microtiter assays, and perhaps use in HTS assays for screening to identify and select modulators of apoptosis.
Studies were initiated to adapt the experimental cell-based FRET assay of EXAMPLE 5 to a format suitable for use in high-throughput screening. First, the assay was scaled down from a 24-well to a 96-well plate format. Cells from three different F9 parental cultures were plated in a black-sided 96-well plates (Costar #3904) at a density of 32,000 cells/well (˜1×10^5 cells/cm^2); allowed to adhere overnight; and then the media was replaced with either 100 μl fresh media containing inducer (5 μM staurosporin in 0.25% DMSO vehicle) or 100 μl containing only vehicle (0.25% DMSO). After an overnight incubation, fluorescence measurements were made to evaluate FRET signal changes. […] The assay therefore appeared to be adaptable to a 96-well format but it was not initially clear how signal might be improved to increase the signal-to-background ratio.
A 96-well FRET assay was evaluated for inter-assay well variability and inter-plate variability. Possible signal drift during measurement of the FRET fluorescence signal was evaluated using one of two different robotics-compatible rapid fluorescence plate readers (SpeedReader or Cytofluor II). After plating at an initial density of about 60,000 cells/well, and overnight culture F9-1-13 cells were treated with 5 μM staurosporin, or vehicle. After an overnight incubation in staurosporin (i.e., 16-24 hrs.), the plates were either washed, or not washed, and then assayed repeatedly over the next 1.5 hours using either of the plate readers. […] However, using the same assay conditions but with anti-Fas antibody as an inducer, different results were recorded. […] The basis for the observed differences in measuring devices is not clear, but may relate to the design of the light source and/or the sensitivity of the detection circuitry in the two different respective fluorescence readers as well as possible different means for optically or digitally subtracting background incident radiation.
Assay Confirmation: The following experiment was performed to validate the ability of the 96-well FRET assay to detect inhibitors of apoptosis: namely, F9-1-13 cells (n=5 wells) were treated with 50-100 μM Z-VAD-fmk (a broad spectrum caspase inhibitor) or vehicle (n=55) in randomized wells of a 96-well plate. All of these wells, and six additional positive control wells (i.e., lacking the inhibitor), were treated with 5 μM staurosporine in 0.25% DMSO vehicle. Six negative control wells were treated with vehicle only (0.25% DMSO). After overnight incubation, FRET signal changes were evaluated as described above.
Three alternatives to staurosporine induction were evaluated: serum withdrawal; c2-ceramide treatment; and induction via engagement of the CD95/Fas receptor with anti-Fas antibody. […] To increase the proportion of adherent cells, poly-D-lysine and 0.1% gelatin were evaluated in anti-Fas antibody treated F9-1-13 cells. […] Anti-Fas antibody was therefore chosen as a preferred inducer of apoptosis for high-throughput screening. […]

caspase-3 [3] = assay: Caspase-3 activity in F9-1-13 cells; assay type: cell-based, human; settings: 75 μM, 16-24 hours
Experimental: Three alternatives to staurosporine induction were evaluated: serum withdrawal; c2-ceramide treatment; and induction via engagement of the CD95/Fas receptor with anti-Fas antibody. […] To increase the proportion of adherent cells, poly-D-lysine and 0.1% gelatin were evaluated in anti-Fas antibody treated F9-1-13 cells. […] Anti-Fas antibody was therefore chosen as a preferred inducer of apoptosis for high-throughput screening.
as §3

caspase-3 [4] = assay: Caspase-3 assay in SAT-reporter-transformed HEK293 cells after apoptosis inducers; assay type: cell-based, human; settings: 100-200 μM etoposide, 4, 5, 8 or 24 hrs.
IMR-32 cells [5] = assay: Microscopic examination of SYTO 13 / propidium iodide stained IMR-32 cells; assay type: cell-based; settings: etoposide
Source text: as §1, with “IMR-32 cells were treated with Actinomycin D (ActD), cycloheximide (CHX), etoposide or staurosporin for 4-8 hrs.” left out
Morphologic Markers of Apoptosis: Microscopic markers of apoptosis include membrane blebbing, cell shrinkage (i.e., cytoplasmic condensation) and condensed (dense) chromosomal nuclear materials (i.e., pyknosis).

IMR-32 cells [6] = assay type: cell-based
Experimental: as §1
DNA Fragmentation ELISA: Apoptosis-induced inter-nucleosomal fragmentation of chromosomal DNA was quantified using the “Cell Death Detection ELISA^PLUS” (Boehringer Mannheim) according to the manufacturer's instructions. Briefly, ˜10^4 cells/well were plated on a poly-D-lysine-coated 96-well plate and treated for various periods of times with different apoptosis-inducing agents. The cells were lysed and the nuclei and membranes were pelleted. An aliquot of the cytoplasm-containing supernatant was then transferred to a streptavidin-coated microtiter plate and incubated with anti-histone-biotin and anti-DNA-peroxidase, resulting in the formation of “sandwich” antibody complexes, i.e., (anti-DNA-peroxidase)-(nucleosomal-DNA-containing-histone) -(anti-histone-biotin)-(streptavidin-microtiter plate). Unbound antibody was removed by washing. Peroxidase substrate (i.e., ABTS) was added and nucleosomal DNA complexes quantified by spectrophotometric analysis of the colored peroxidase reaction product.
as §2

F1-1-42 cells = assay: Staurosporin-induced apoptosis in F1-1-42 SAT FRET reporter cells (FRET signal, western blot, caspase-3, morphology); assay type: cell-based, human; settings: 100 μM added 30 min prior to staurosporin
Experimental: Detecting Intracellular Changes in a FRET Reporter in Cells Undergoing Apoptosis: Having established that SAT reporter protein synthesized in HEK293 cells could be cleaved ex vivo, i.e., in cell lysates by trypsin (above), an initial in vivo intracellular assay was conducted using the selected F1-1-42 clonal cell line and staurosporin to induce apoptosis. […] In these experiments the F1-1-42 cells were plated at a density of 4×10^5 cells/0.5 ml in each well of a 24-well microtiter plate. After overnight incubation, apoptosis was induced by adding staurosporin to a final concentration of 5 μM, and using vehicle (0.25% DMSO) as a negative control. Assays for caspase-3 were used to confirm that apoptosis was induced. […] Subsequent testing determined that significant changes in FRET signal were first detectable at about 8 hours after addition of staurosporin and were maximal by 24 hrs post-induction.

[7] = 50 μM etoposide phosphate, 2, 8, 17 or 24 hrs.

Cc1c2oc3c(C)ccc(C(=O)N[C@@H]4C(=O)N[C@H](C(C)C)C(=O)N5CCC[C@H]5C(=O)N(C)CC(=O)N(C)[C@@H](C(C)C)C(=O)O[C@@H]4C)c3nc-2c(C(=O)N[C@@H]2C(=O)N[C@H](C(C)C)C(=O)N3CCC[C@H]3C(=O)N(C)CC(=O)N(C)[C@@H](C(C)C)C(=O)O[C@@H]2C)c(N)c1=O [ActD, Actinomycin D] (I: T[dV]P[Sar][NMeV] / II: T[dV]P[Sar][NMeV]; ester I:1-I:C, II:1-II:C; linker I:N-II:N via Actinocin(9to1))
programmed cell death as measured by Cell Death Detection (IMR-32 cells [1]): about 30%

C[C@@H]1C[C@@H]([C@H](O)CC2CC(=O)NC(=O)C2)C(=O)[C@@H](C)C1 [CHX, cycloheximide]
programmed cell death as measured by Cell Death Detection (IMR-32 cells [1]): about 50%

COc1cccc2c1C(=O)c1c(O)c3c(c(O)c1C2=O)C[C@@](O)(C(=O)CO)C[C@@H]3O[C@H]1C[C@H](N)[C@H](O)[C@H](C)O1 [Doxorubicin]
increase in caspase-3 activity (caspase-3 [2]; 5 μM): did not produce any increase in caspase-3 activity

CCCCCCCCCCCCC/C=C/[C@@H](O)[C@H](CO)NC(C)=O [c2-ceramide]
FRET signal change (F9-1-13 cells; 75 μM, 16-24 hours): Only a small reduction in the FRET signal | caspase-3 activity change (caspase-3 [3]): Only a small reduction in the FRET signal and increase in caspase-3 activity

COc1cc([C@@H]2c3cc4c(cc3[C@@H](O[C@@H]3O[C@@H]5CO[C@@H](C)O[C@H]5[C@H](O)[C@H]3O)[C@H]3COC(=O)[C@H]23)OCO4)cc(OC)c1O [etoposide]
change in caspase-3 activity (caspase-3 [4]): no change was observed; also recorded: showed no effect | attached cells obviously dead (IMR-32 cells [5]; 8 hrs.): none were obviously dead | attached cells with condensed nuclei and membrane blebbing (IMR-32 cells [5]; 8 hrs.): about 50% | attached cells clearly dead (IMR-32 cells [5]; 24 hrs.): about 15% | attached cells showing apoptotic morphology (IMR-32 cells [5]; 24 hrs.): about 75% | time at which DNA fragmentation reached a maximal value (IMR-32 cells [6]; 50 μM etoposide): 8 h | measured apoptotic DNA fragmentation (IMR-32 cells [6]; [7]): an increase in measured apoptotic DNA fragmentation | DNA fragmentation as determined by ELISA, dose dependence (IMR-32 cells [6]; 4-8 hrs. treatment): dose-dependent changes | increase in caspase-3 activity (caspase-3 [2]; confluent IMR-32, 100 μM etoposide, 8 hr.): ~5 fold | induction of caspase-3-like activity (caspase-3 [2]; etoposide 50-100 μM): ~10 fold | cell survival by SYTO 13 staining in comparison with untreated controls (IMR-32 cells [1]; [7]): a decrease in cell survival over 24 hrs. | cells surviving (SYTO 13 assay) (IMR-32 cells [1]; 8 hr): 55% | cells surviving (SYTO 13 assay) (IMR-32 cells [1]; 24 hrs): 30% | programmed cell death as measured by Cell Death Detection (IMR-32 cells [1]): about 50%

Z-DEVD-fmk
effect on cleavage of SAT reporter in cell extracts (western blot) (F1-1-42 cells): markedly less cleavage of SAT reporter | effect on morphologic signs of apoptosis (F1-1-42 cells): reduced morphologic signs of apoptosis | effect on staurosporin-induced FRET signal change (F1-1-42 cells): marked reduction in the FRET signal change

Z-VAD-fmk
mean FRET signal greater than in the staurosporine treatment group (F9-1-13 cells; 50-100 μM Z-VAD-fmk, 5 μM staurosporine, overnight, 96-well, P<0.001): ~65%
